Key:
[1] = tested on: p38α; experiment: p38α knock-down in mouse macrophage cell line RAW264.7, Western blotting; assay type: cell-based
[2] = tested on: rat p38α mRNA; experiment: Rat p38α mRNA levels in NR-8383 cells, quantitative real-time PCR; assay type: cell-based; conditions: 300 nM oligonucleotide with FuGENE 6, 24 hours, mRNA by quantitative real-time PCR, average of two experiments
[3] = tested on: p38α; experiment: p38α knock-down in mouse T cell line EL4, Western blotting; assay type: cell-based
[4] = tested on: ovalbumin (OVA)-induced airway hyperresponsiveness; experiment: Mouse model of allergic inflammation (OVA), intratracheal oligonucleotide administration; assay type: in vivo; conditions: OVA mice
Protocol: In the mouse model of allergic inflammation, mice were sensitized and challenged with aerosolized chicken ovalbumin (OVA). Airway responsiveness was assessed by inducing airflow obstruction with a methacholine aerosol using a noninvasive method. This methodology utilized unrestrained conscious mice that are placed into the main chamber of a plthysmograph (Buxco Electronics, Inc., Troy, N.Y.). Pressure differences between this chamber and a reference chamber were used to extrapolate minute volume, breathing frequency and enhanced pause (Penh). […] This parameter closely correlates with lung resistance as measured by traditional invasive techniques using ventilated animals (Hamelmann et al., 1997). […]
For intratracheal administration of ISIS 101757, female Balb/c mice (Charles Rivers Laboratory, Taconic Farms, N.Y.) were maintained in micro-isolator cages housed in a specific pathogen-free (SPF) facility. […] Animals were analyzed about 24 hours following the last nebulization using the Buxco electronics Biosystem. Lung function (Penh), lung histology (cell infiltration and mucus production), target mRNA reduction in the lung, inflammation (BAL cell type & number, cytokine levels), spleen weight and serum AST/ALT were determined. […]

[5] = tested on: mouse p38α mRNA; experiment: Mouse p38α mRNA levels in bEND.3 cells, quantitative real-time PCR; assay type: cell-based; parameters: % Inhib. mouse p38α: concentration or dose not given beside the values
Summary of the method: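 Mouse bEND.3 cells, antisense oligonucleotide-treated; p38α mRNA measured by one-step real-time RT-PCR (RT 30 min at 48 °C, then 40 cycles) with a FAM/TAMRA probe. Levels normalized to GAPDH or RiboGreen total RNA, and percent inhibition derived from standard curves of untreated-control mRNA.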

[6] = mouse, in vivo
Protocol: For the aerosol studies, the protocol described above was slightly modified. Male Balb/c mice were injected IP with OVA (20 μg) in aluminum hydroxide on days 0 and 14. Aerosol dosing was performed with nebulized sterile saline, antisense oligonucleotide or mismatched control oligonucleotide using 25, 125 and 250 μg/ml solutions (5 mg/kg) for 30 min. on days 14-20 in a closed chamber. Aerosol lung challenge was carried out with nebulized saline or 1% OVA for 20 min. on days 18, 19 and 20. BAL fluid was collected at 24 hr post-last lung challenge (cell differentials) or at 2-12 h post-challenge (cytokine analysis). AHR was measured 24 hours after OVA challenge. Mice were exposed to aerosolized methacholine 24 hr post-last lung challenge from 2-80 mg/ml for 3 min. until a 200% increase in Penh was achieved.

For “ISIS 101757: antisense oligonucleotide targeted to mouse p38α, SEQ ID NO 177; 2′-MOE gapmer, all phosphorothioate linkages (antisense AGGTGCTCAGGACTCCATTT; all phosphorothioate, sugars by position and methylation of C not given here; 2'-MOE gapmer)”, the p38α knock-down effect [1] was “confirmed”, the “% Inhib. rat p38α” value [2] was 53% and the p38α knock-down effect [3] was “confirmed”. For the same substance, the “Penh response to methacholine (50 mg/ml) challenge” value [4] was “dose-dependent inhibition”, the “% Inhib. mouse p38α” value ([5]; bEND.3 cells, mRNA by quantitative real-time PCR, average of two experiments) was 88% and the IC50 ([5]; endothelial cells, read-out: IC50 for reducing p38α mRNA) was under 50 nM. For the same substance, the “Oligonucleotide levels in lung tissue sufficient to achieve the pharmacological effects” value [6] was “up to 1 μg/g”.

Reference: patent publication US20040171566A1, “Antisense modulation of p38 mitogen activated protein kinase expression” (priority 1999, published 2004)
